The results in this text go back to ChEMBL document CHEMBL1146610, “Improved gelatinase a selectivity by novel zinc binding groups containing galardin derivatives” (Bioorg Med Chem Lett, 2003).

What is called IC50 is the concentration needed to halve the response being measured. A low value points to greater potency.

Assay [1] addresses 72 kDa type IV collagenase (Homo sapiens, UniProt P08253). The experiment in a line: Inhibition of Matrix metalloprotease-2.
A further assay concerns the target T1, Interstitial collagenase (Homo sapiens, UniProt P03956).
T1 sequence (P03956 whole entry): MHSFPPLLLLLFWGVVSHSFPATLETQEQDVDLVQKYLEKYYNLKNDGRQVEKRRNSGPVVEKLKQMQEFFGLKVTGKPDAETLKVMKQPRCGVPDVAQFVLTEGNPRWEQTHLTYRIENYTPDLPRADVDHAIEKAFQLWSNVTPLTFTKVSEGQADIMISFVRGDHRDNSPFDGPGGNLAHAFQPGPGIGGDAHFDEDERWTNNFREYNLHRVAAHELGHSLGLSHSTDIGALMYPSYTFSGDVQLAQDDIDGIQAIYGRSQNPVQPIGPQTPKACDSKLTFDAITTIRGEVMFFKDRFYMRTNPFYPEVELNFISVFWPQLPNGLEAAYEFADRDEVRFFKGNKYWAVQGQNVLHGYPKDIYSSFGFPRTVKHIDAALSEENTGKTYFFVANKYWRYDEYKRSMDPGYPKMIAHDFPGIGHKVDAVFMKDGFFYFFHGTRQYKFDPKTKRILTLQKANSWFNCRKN
The experiment in a line: Inhibition of matrix metalloprotease-1.

Chain of 72 kDa type IV collagenase (P08253 whole entry): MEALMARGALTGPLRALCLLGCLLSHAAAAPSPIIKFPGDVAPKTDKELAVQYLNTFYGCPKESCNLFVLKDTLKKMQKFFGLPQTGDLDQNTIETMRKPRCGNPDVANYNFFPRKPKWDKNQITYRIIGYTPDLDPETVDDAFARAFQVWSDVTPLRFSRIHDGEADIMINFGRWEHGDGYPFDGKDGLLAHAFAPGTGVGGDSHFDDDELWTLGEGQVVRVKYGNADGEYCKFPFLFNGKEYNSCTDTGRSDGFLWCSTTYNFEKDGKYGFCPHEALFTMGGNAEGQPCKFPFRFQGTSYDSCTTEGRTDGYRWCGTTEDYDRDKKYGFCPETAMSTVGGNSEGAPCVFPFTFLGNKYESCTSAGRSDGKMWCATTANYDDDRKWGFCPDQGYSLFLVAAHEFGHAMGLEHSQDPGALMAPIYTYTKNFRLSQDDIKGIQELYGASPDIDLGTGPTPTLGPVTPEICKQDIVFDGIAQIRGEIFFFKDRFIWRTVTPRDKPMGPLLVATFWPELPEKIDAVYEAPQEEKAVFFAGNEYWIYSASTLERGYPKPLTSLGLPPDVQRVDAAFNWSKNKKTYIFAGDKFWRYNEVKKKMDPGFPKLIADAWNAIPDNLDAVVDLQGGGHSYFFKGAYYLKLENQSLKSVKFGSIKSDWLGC

On to `CNC(=O)C(Cc1c[nH]c2ccccc12)NC(=O)[C@@H](CC(=O)NN)CC(C)C` (stereo partly specified), for which the results for the IC50 (in assay [1]; against Interstitial collagenase) were 550 nM and 50 nM, respectively.

On to `CNC(=O)[C@H](Cc1c[nH]c2ccccc12)NC(=O)[C@@H](CC(=O)c1ccccn1)CC(C)C`, for which the IC50 in assay [1] amounted to 180 nM; on Interstitial collagenase, 730 nM.

Take `CNC(=O)C(Cc1c[nH]c2ccccc12)NC(=O)[C@@H](CC(=O)Nc1ccccn1)CC(C)C` (stereo partly specified): the figures for the IC50 (in assay [1]; at Interstitial collagenase) were 50 nM and 60 nM, respectively.

In the case of `CNC(=O)[C@H](Cc1c[nH]c2ccccc12)NC(=O)[C@@H](CC(=O)c1ccc[nH]1)CC(C)C`, the IC50 was 540 nM in assay [1] and 860 nM at Interstitial collagenase.

Take `CNC(=O)C(Cc1c[nH]c2ccccc12)NC(=O)[C@@H](CC(=O)O)CC(C)C` (stereo partly specified): the half-inhibitory concentration (IC50) in assay [1] came out at 20 nM.

With `CNC(=O)C(Cc1c[nH]c2ccccc12)NC(=O)[C@@H](CC(=O)NNS(=O)(=O)c1ccc(C)cc1)CC(C)C` (stereo partly specified), the results for the IC50 (in assay [1]; on Interstitial collagenase) were 30 nM and more than 10000 nM, respectively.
